Like-named read-outs stand apart in the source and are kept apart here.
What was measured:
Aβ40 = experiment: Amyloid detection: Aβ40 in rat brain and CSF after oral dosing (Wako ELISA); type: in vivo, Sprague Dawley rat; conditions: 10 mg/kg p.o.
Procedure: Male Sprague Dawley rats were acquired from Charles River UK Ltd. (Margate, UK) and housed according to UK Home Office guidelines. Drugs were made up to the appropriate concentrations in 0.5% methyl cellulose. Animals were dosed orally (2 mL/kg) by gavage at the doses outlined in Tables 1 to 4 below. At the time points post-dosing, specified in the Tables 1 to 4 below the animals were administered an i.p. injection of sodium pentobarbitone (approximately 330 mg/kg for terminal anaesthesia). Using a guillotine, the animals were decapitated and trunk blood collected into 15 ml Falcon tubes containing 100 IU heparin. Blood was vortexed followed by centrifugation at 6000 rpm, 4° C. for 5 minutes. Plasma was collected for DMPK and ELISA assays and stored at −80° C. until use. Brains were dissected out and divided along the midline, weighed and stored at −80° C. until further use. Amyloid Detection 100 ml of chilled 0.2% diethyl amine (DEA) in 50 mM NaCl (pH 10) was freshly prepared and 1 ml/25 mg brain tissue was added to each hemisphere (i.e. 40× brain volume). The brains were immediately homogenized using a Polytron PT 1200 for 1.5 minutes and samples left to incubate on ice for one hour after homogenisation. 3 ml of the homogenate was transferred to a polyallomer tube (Beckman #362333) and spun at 133000×g (55,000 rpm) for 45 min at 4° C. The supernatant was then neutralised to pH 8-8.3 by adding 1/10 volume 0.5M Tris/HCl, pH 6.8. The samples can be used fresh or snap frozen on dry-ice and stored at −80° C. until required for analysis The Wako Aβ40 ELISA kit (Code No. 294-62501) uses the monoclonal antibody BNT77, raised against epitope Aβ(11-28) and the monoclonal antibody BA27, which specifically detects the C-terminal portion of Aβ40. This kit is used for the quantitative determination of human or rat Aβ(1-40) and also N-terminally truncated Aβ40 species (Aβ(x-40)) in biological matrices such as tissue culture medium, tissue homogenate, CSF and plasma. For analysis, plasma and brain samples are diluted 1:1 with the standard diluent contained in the kit and CSF samples are diluted 1:8 with the standard diluent contained in the kit. The assay is carried out according to manufacturers instructions and samples are analysed in duplicate. Data is analysed using Microsoft Excel 2003 and statistical analysis is carried out using Genstat 9th Edition.

[1] = Plasma protein binding (PPB), rapid equilibrium dialysis; type: in vitro ADME; conditions: male, Sprague Dawley, rat, 37° C., 6 h dialysis
Procedure: Method for Determination of Plasma Protein Binding (PPB) and Brain Tissue Binding (BTB) Compound Preparation • Compounds were dissolved in DMSO to give a 1 mg free base/mL solution, before further dilution to 100 μg/mL in acetonitrile (100 μL of 1 mg/mL into 900 μL acetonitrile). Matrix Preparation • On the morning of dialysis, control male Sprague Dawley rat plasma and brain, previously stored at −80° C. were thawed at room temperature. Plasma was checked for pH and if necessary adjusted to 7.4 with 1M HCl. Plasma was then centrifuged (2000 g for 10 min) and the brains diluted with 2 mL of Phosphate Buffered Saline (pH 7.4) per gram of tissue and homogenised using a mechanical homogeniser. An aliquot (10 μL) of the 100 μg/mL acetonitrile compound solution was then added to 1 mL of plasma and brain homogenate and vortex mixed to give a final compound concentration of 1 μg/mL in matrix. RED Plate Preparation • The Rapid Equilibrium Dialysis (RED) plate (Thermo Scientific) was prepared in accordance with the manufacturers guidelines i.e. the base plate was soaked in 20% (v/v) ethanol for 10 min and then rinsed twice with deionised water before being allowed to dry. The base plate was then filled with the appropriate number of disposable inserts (n=3 per compound) (Thermo Scientific) and matrix containing 1 μg/mL compound added into the matrix chamber of the inserts (200 μL) and an aliquot (350 μL) of PBS added to the buffer chamber. The plate was then covered with an adhesive and incubated in air at 37° C. for 6 h with 130 rpm agitation. Sampling • Following the 6 h incubation, the seal was removed and an aliquot (50 μL) taken from the PBS chambers and dispensed into Micronics tubes. Also, an aliquot (50 μL) was removed from the matrix chambers and placed into separate Micronics tubes. Plasma and brain was then matrix matched with 50 μL of drug-free PBS and the PBS samples with 50 μL of the corresponding drug-free matrix, to give equal final compositions and volumes […]. Sample Analysis • Samples were vortex mixed and an aliquot (300 μL) of acetonitrile containing 0.1% formic acid and 100 ng/mL of an appropriate internal standard added. Samples were then mixed and centrifuged (2000 g for 15 min) and an aliquot of the supernatant (100 μL) removed into a 96-deep well plate and diluted with an equal volume of water ready for analysis by LC-MS/MS. • The following data was obtained for the following compounds in the above assay (Table 5).

[2] = pH 7.4, 1 μg/mL in rat plasma, mean of n = 3, read-out: Rat PPB (%) (converted)
[3] = pH 7.4, fraction unbound, 1 μg/mL in rat plasma, mean of n = 3, read-out: Rat Plasma fu

fraction unbound at 6 h, 1 μg/mL [1, 2]	fraction unbound at 6 h, 1 μg/mL [1, 3]	Compound	reduction of Aβ40 in the CSF (Aβ40; 4 hours) [%]	reduction of Aβ40 in the brain (Aβ40; 4 hours) [%]	reduction of Aβ40 in the CSF (Aβ40; 6 hours) [%]	reduction of Aβ40 in the brain (Aβ40; 6 hours) [%]
0.13	0.13	COc1cnc(C(=O)Nc2cc(F)c(F)c([C@]34CO[C@H](CF)[C@H]3CSC(N)=N4)c2)cn1 [Example 4, N-(3-((4aS,5S,7aS)-2-amino-5-(fluoromethyl)-4a,5,7,7a-tetrahydro-4H-furo[3,4-d][1,3]thiazin-7a-yl)-4,5-difluorophenyl)-5-methoxypyrazine-2-carboxamide]	67	51	63	42
0.143	0.143	COc1cnc(C(=O)Nc2ccc(F)c([C@]34CO[C@H](C(F)F)[C@H]3CSC(N)=N4)c2)cn1 [Example 3, N-(3-((4aS,5S,7aS)-2-amino-5-(difluoromethyl)-4a,5,7,7a-tetrahydro-4H-furo[3,4-d][1,3]thiazin-7a-yl)-4-fluorophenyl)-5-methoxypyrazine-2-carboxamide]	75	58	71	61

Compound	fraction unbound at 6 h, 1 μg/mL [1, 2]	fraction unbound at 6 h, 1 μg/mL [1, 3]	reduction of Aβ40 in the CSF (Aβ40; 4 hours) [%]	reduction of Aβ40 in the brain (Aβ40; 4 hours) [%]	reduction of Aβ40 in the CSF (Aβ40; 6 hours) [%]	reduction of Aβ40 in the brain (Aβ40; 6 hours) [%]
COc1cnc(C(=O)Nc2ccc(F)c([C@]34CO[C@H](CF)[C@H]3CSC(N)=N4)c2)cn1 [Example 2, N-(3-((4aS,5S,7aS)-2-amino-5-(fluoromethyl)-4a,5,7,7a-tetrahydro-4H-furo[3,4-d][1,3]thiazin-7a-yl)-4-fluorophenyl)-5-methoxypyrazine-2-carboxamide]	0.251	0.252	85	63	69	65

From US9175013B2, “Fused aminodihydrothiazine derivatives” (Eisai R&D Management Co., Ltd., priority 2011, dated 2015)
